Test results reported in patent US4764505A, “Skin treatment composition” (Shiseido Company Ltd., priority 1985, dated 1988).
Like-named read-outs stand apart in the source and are kept apart here.

How the values were obtained:
[1] = Stability of neutral cream on storage at 37° C. (discoloration); type: physicochemical; details: for degree of discoloration: neutral cream of Example 8 (or arbutin replaced), 37° C.
Method: These three samples were stored at a temperature of 37° C. for 1 month, 2 months, and 3 months.

[2] = tested on: tyrosinase
Method: The depigmenting effects of arbutin and hydroquinone were evaluated by using the inhibition rate of tyrosinase, i.e. polyphenol oxidase for forming melanin. This evaluation method is generally accepted in the art.
The tyrosinase inhibition rate was determined by using DOPA as a substrate as follows:
Preparation of Sample Solution
Aqueous sample solutions having a concentration of hydroquinone or arbutin of 150, 300, or 600 mM were prepared.
Preparation of Substrate Solution
A substrate solution was prepared by dissolving 5 mg of DOPA in 10 ml of distilled water.
Preparation of Enzyme Solution
An enzyme solution was prepared by dissolving 10 mg of tyrosinase (2000 I.U./mg, Sigma Chemical Co.) in 10 ml of distilled water.
A 0.5 ml amount of the substrate solution and 0.9 ml of 1/15M phosphate buffer solution were added to 0.05 ml of the sample. The mixture was incubated at 25° C. for 5 minutes. Then, 0.05 ml of the enzyme solution, which was previously incubated at 25° C. for 5 minutes, was added to the above-incubated sample mixture. The resultant mixture was allowed to react for 1.5 minutes. The absorbancy of the resultant reaction mixture was measured at 475 nm. The tyrosinase inhibition rate was calculated from the following equation: [formula] wherein T: Absorbancy in the case of the inhibitor being added;
T': Absorbancy in the case of the inhibitor being added but the substrate not being added
C: Absorbancy in the case of the inhibitor not being added
C': Absorbancy in the case of neither the inhibitor nor the substrate being added

[3] = tested on: skin; details: guinea pig, in vivo
[4] = tested on: skin; details: guinea pig, in vivo; remark: listed apart in the source
[5] = Stability with time in 0.1N aqueous sodium hydroxide (absorbancy at 420 nm, FIG. 1); type: physicochemical; details: 1 mM in 0.1N aqueous sodium hydroxide, 37° C.
Method: Also in FIG. 1, the changes of the absorbancy at 420 nm are shown with the lapse of time.
Hydroquinone, arbutin, or hydroquinone monocaprylate was dissolved at a concentration of 1 mM in a 0.1N aqueous sodium hydroxide solution. The changes in the color of the resultant solutions with the lapse of time at 37° C. were monitored by measuring the absorbancy at 420 nm.

Structure (SMILES)	stability with the lapse of time (in words) ([1]; Table 4 conclusion)	degree of discoloration ([1]; 1 month)	degree of discoloration ([1]; 2 months)	degree of discoloration ([1]; 3 months)	Inhibition Rate (%) ([2]; concentration 5 mM)	Inhibition Rate (%) ([2]; concentration 10 mM)	Inhibition Rate (%) ([2]; concentration 20 mM)	inhibition effect compared with hydroquinone ([2]; tyrosinase, Table 1 conclusion in words)	Results (incidence, animals responding/tested) [3]	Results (score, erythema and edema criteria) [3]	contact sensitivity compared with other depigmenting agents [3]	order of the contact sensitization potential [3]	irritation (in words) [4]	number of the guinea pigs causing the irritation [4]	change in color of the solution with lapse of time [5]
OC[C@H]1O[C@@H](Oc2ccc(O)cc2)[C@H](O)[C@@H](O)[C@@H]1O [Arbutin, hydroquinone-β-D-glucoside]	excellent	++	++	++	55.3	62.3	67.1	superior to that of hydroquinone	0/1	0	remarkably low compared with that of other depigmenting agents	Hydroquinone monocaprylate>Hydroquinone>>Arbutin	no irritation	0	the change of appearance was not observed
CCCCCCCC(=O)Oc1ccc(O)cc1 [Hydroquinone monocaprylate, hydroquinone monocaprylate]		+	+	-					5/5	3.4		Hydroquinone monocaprylate>Hydroquinone>>Arbutin	strong irritation		the stability was improved moderate
Oc1ccc(O)cc1 [Hydroquinone, hydroquinone]		-			46.5	51.6	59.0		5/5	2.6		Hydroquinone monocaprylate>Hydroquinone>>Arbutin			rapidly colored brown
